Publication PMC6277767, “Broad and Region-Specific Impacts of the Synthetic Cannabinoid CP 55,940 in Adolescent and Adult Female Mouse Brains” (Frontiers in Molecular Neuroscience, 2018)

Test system: CD1 female mouse brain lipidome
Experiment: Brain-region lipid levels (HPLC/MS/MS lipidomics) 2 h after single i.p. 3 mg/kg CP 55,940 vs vehicle
Type: in vivo
Set-up: N-arachidonoyl phenylalanine level, Mean / N-stearoyl tryptophan level, Mean / N-stearoyl proline level, Mean / N-stearoyl leucine level, Mean / N-stearoyl phenylalanine level, Mean / N-stearoyl serine level, Mean / N-stearoyl methionine level, Mean: unit: moles per gram
Details: thalamus, 3 mg/kg CP 55,940
Description: The Bloomington Institutional Animal Care and Use Committee of Indiana University reviewed and approved the animal procedures. Female mice from the CD1 strain were utilized to match our study examining THC’s effects on the brain lipidome ([Leishman et al., 2018]). Mice were given a single i.p. injection of either 3 mg/kg CP or 1:1:18 cremophor:ethanol:saline vehicle (please refer to the section “3 mg/kg CP Is Relevant for Synthetic Cannabinoid Abuse and Has Stronger Effects on the Female Mouse Brain Lipidome During Adolescence” for a justification of dose and use of female mice). Three different age groups were given injections: PND 35 and PND 50 adolescents, and adult mice (PND 113). At least eight mice in each age group received CP and at least eight received vehicle. Matching the THC study time course ([Leishman et al., 2018]), mice were sacrificed via rapid decapitation 2 h after injection. Brains were immediately removed and flash-frozen in liquid nitrogen, and then stored at -80°C until dissections were performed. Brains were dissected on an ice-cold dissection plate into the following regions: STR, HIPP, CER, THAL, CTX, HYP, MID, and STEM. These abbreviations for these brain areas will be used exclusively when discussing the results generated by these specific dissections. Each dissected area was immediately placed in liquid nitrogen and then stored at -80°C until used for lipid extraction.
Tissue extracts were performed as previously described ([Bradshaw et al., 2006]; [Stuart et al., 2013]; [Raboune et al., 2014]; [Leishman et al., 2016a],[b], [2017], [2018]). First, samples were shock frozen in liquid nitrogen, weighed, and transferred to a centrifuge tube. The mass of the largest sample was multiplied by 50 to determine how many milliliters of HPLC-grade methanol (Fisher, Fair Lawn, NJ, United States) to add. Then, samples were spiked with 500 pmol deuterium-labeled NAGly (d8NAGly; Cayman Chemical, Ann Arbor, MI, United States). Samples were placed on ice in darkness for 2 h then individually homogenized and centrifuged at 19,000 × g for 20 min at 20°C. Supernatants were diluted with HPLC water (purified in house) to make a solution of 75% water, 25% supernatant. Lipids were partially purified on C18 solid phase extraction columns (Agilent, Palo Alto, CA, United States). A series of four elutions with 1.5 mL of 60%, 75%, 85%, and 100% methanol were collected ([Stuart et al., 2013]; [Leishman et al., 2016a],[b], [2018]).
As previously described ([Bradshaw et al., 2006]; [Tan et al., 2006]; [Smoum et al., 2010]; [Stuart et al., 2013]; [Tortoriello et al., 2013]; [Raboune et al., 2014]; [Leishman et al., 2016a],[b], [2017], [2018]), samples were analyzed using an Applied Biosystems API 3000 triple quadrupole mass spectrometer with electrospray ionization (Foster City, CA, United States). Using an Agilent XDB-C18 reversed phase analytical column and optimized mobile phase gradients, 20 μL from each elution were chromatographed. Two Shimadzu 10ADvp pumps (Columbia, MD, United States) provided the pressure for gradient elution. Mobile phase A: 20% methanol, 80% water (v/v) and 1 mM ammonium acetate (Sigma, St. Louis, MO, United States). Mobile phase B: 100% methanol, 1 mM ammonium acetate. Every method run began with 0% mobile phase B, reached 100% mobile phase B flowing at 0.2 mL/min, and gradually returned to 0% mobile phase B.
This screening library will be referred to as the lipidome when discussing data from this study. HPLC/MS/MS data were analyzed using Analyst software (Applied Biosystems) ([Bradshaw et al., 2006]; [Tan et al., 2006]; [Stuart et al., 2013]; [Tortoriello et al., 2013]; [Raboune et al., 2014]; [Leishman et al., 2016a],[b], [2017], [2018]). Chromatograms (Supplementary Figure 3) were generated by determining the retention time of analytes from the analytical column with a [M-1] or [M+1] parent peak and a fragmentation peak corresponding to the programmed values. […]

## CCCCCCC(C)(C)c1ccc([C@@H]2C[C@H](O)CC[C@H]2CCCO)c(O)c1 [CP 55,940]
PND 35
  N-oleoyl glycine Direction (relative to Veh): ↓
  N-oleoyl glycine Magnitude (x Veh level): 0.91 x Veh level
  N-oleoyl leucine Direction (relative to Veh): ↑
  N-oleoyl leucine Magnitude (x Veh level): 1.27 x Veh level
  N-oleoyl valine Direction (relative to Veh): ↑
  N-oleoyl valine Magnitude (x Veh level): 1.44 x Veh level
  N-palmitoyl GABA Direction (relative to Veh): ↑
  N-palmitoyl GABA Magnitude (x Veh level): 1.21 x Veh level
  N-palmitoyl leucine, Direction (relative to Veh): ↑
  N-palmitoyl leucine, Magnitude (x Veh level): 1.42 x Veh level
  N-palmitoyl phenylalanine Direction (relative to Veh): ↑
  N-palmitoyl phenylalanine Magnitude (x Veh level): 1.35 x Veh level
  N-palmitoyl tyrosine Magnitude (x Veh level): 1.34 x Veh level
  N-palmitoyl tyrosine, Direction (relative to Veh): ↑
  N-palmitoyl valine Direction (relative to Veh): ↑
  N-palmitoyl valine Magnitude (x Veh level): 1.79 x Veh level
  N-stearoyl serine Direction (relative to Veh): ↓
  N-stearoyl serine Magnitude (x Veh level): 0.83 x Veh level
  N-stearoyl tyrosine Direction (relative to Veh): ↓
  N-stearoyl tyrosine Magnitude (x Veh level): 0.81 x Veh level
  N-stearoyl valine Direction (relative to Veh): ↑
  N-stearoyl valine Magnitude (x Veh level): 1.26 x Veh level
  PGE2 Direction (relative to Veh): ↑
  PGE2 Magnitude (x Veh level): 1.16 x Veh level
  phosphoLEA Direction (relative to Veh): ↑
  phosphoLEA Magnitude (x Veh level): 1.24 x Veh level
PND 35 adolescent female mice
  2-arachidonoyl glycerol level, Mean: 3.59E-10
  2-linoleoyl glycerol level, Mean: 1.52E-10
  2-oleoyl glycerol level, Mean: 1.68E-09
  2-palmitoyl glycerol level, Mean: 5.34E-10
  6-ketoPGF1α level, Mean: 1.42E-11
  Arachidonic acid level, Mean: 2.14E-09
  Linoleic acid level, Mean: 5.7E-10
  N- stearoyl valine level, Mean: 1.07E-12
  N-arachidonoyl GABA level, Mean: 2.62E-11
  N-arachidonoyl alanine level, Mean: 1.02E-11
  N-arachidonoyl dopamine level, Mean: BDL
  N-arachidonoyl ethanolamine level, Mean: 2.8E-11
  N-arachidonoyl glycine level, Mean: 4.62E-11
  N-arachidonoyl phenylalanine level, Mean: 1.31E-12
  N-arachidonoyl serine level, Mean: 6.28E-12
  N-arachidonoyl taurine level, Mean: 5.99E-11
  N-arachidonoyl tryptophan level, Mean: BDL
  N-arachidonoyl tyrosine level, Mean: 7.9E-13
  N-docosahexaenoyl GABA level, Mean: 2.9E-12
  N-docosahexaenoyl alanine level, Mean: 4.07E-12
  N-docosahexaenoyl ethanolamine level, Mean: 4.03E-11
  N-docosahexaenoyl glycine level, Mean: 1.76E-11
  N-docosahexaenoyl leucine level, Mean: 8.15E-13
  N-docosahexaenoyl phenylalanine level, Mean: 1.14E-12
  N-docosahexaenoyl proline level, Mean: BDL
  N-docosahexaenoyl serine level, Mean: 2.59E-11
  N-docosahexaenoyl tyrosine level, Mean: 7.13E-13
  N-docosahexaenoyl valine level, Mean: 2E-13
  N-linoleoyl GABA level, Mean: 9.8E-13
  N-linoleoyl alanine level, Mean: 1.66E-12
  N-linoleoyl ethanolamine level, Mean: 5.07E-11
  N-linoleoyl glycine level, Mean: 4.36E-12
  N-linoleoyl leucine level, Mean: 3.45E-13
  N-linoleoyl methionine level, Mean: BDL
  N-linoleoyl proline level, Mean: BDL
  N-linoleoyl serine level, Mean: 5.67E-11
  N-linoleoyl tryptophan level, Mean: BDL
  N-linoleoyl tyrosine level, Mean: BDL
  N-nervonoyl valine level, Mean: BDL
  N-oleoyl GABA level, Mean: 5.58E-12
  N-oleoyl alanine level, Mean: 7.79E-12
  N-oleoyl dopamine level, Mean: BDL
  N-oleoyl ethanolamine level, Mean: 1.71E-10
  N-oleoyl glycine level, Mean: 2.36E-11
  N-oleoyl leucine level, Mean: 2.09E-12
  N-oleoyl methionine level, Mean: 1.17E-12
  N-oleoyl phenylalanine level, Mean: 1.2E-12
  N-oleoyl serine level, Mean: 3.24E-10
  N-oleoyl tryptophan level, Mean: 1.87E-13
  N-oleoyl tyrosine level, Mean: 4.87E-13
  N-oleoyl valine level, Mean: 9.01E-13
  N-palmitoyl GABA level, Mean: 1.41E-11
  N-palmitoyl alanine level, Mean: 1.21E-11
  N-palmitoyl ethanolamine level, Mean: 8.69E-11
  N-palmitoyl glycine level, Mean: 4.99E-11
  N-palmitoyl leucine level, Mean: 4.1E-12
  N-palmitoyl methionine level, Mean: 1.84E-12
  N-palmitoyl phenylalanine level, Mean: 2.75E-12
  N-palmitoyl proline level, Mean: 1.05E-12
  N-palmitoyl serine level, Mean: 1.05E-10
  N-palmitoyl tryptophan level, Mean: 4.31E-13
  N-palmitoyl tyrosine level, Mean: 1.31E-12
  N-palmitoyl valine level, Mean: 2.65E-12
  N-stearoyl GABA level, Mean: 1.05E-11
  N-stearoyl alanine level, Mean: 1.24E-11
  N-stearoyl ethanolamine level, Mean: 1.97E-11
  N-stearoyl glycine level, Mean: 2.74E-11
  N-stearoyl leucine level, Mean: 1.66E-12
  N-stearoyl methionine level, Mean: 1.9E-12
  N-stearoyl phenylalanine level, Mean: 2.22E-12
  N-stearoyl proline level, Mean: 5.08E-13
  N-stearoyl serine level, Mean: 3.19E-11
  N-stearoyl tryptophan level, Mean: 1.26E-12
  N-stearoyl tyrosine level, Mean: 1.15E-13
  Oleic acid level, Mean: 1.67E-09
  PGE2 level, Mean: 6.31E-10
  PhosphoLEA level, Mean: 2.93E-11
